Entries after “also recorded” stand apart in the source; their conditions may differ. Where a name gives a salt, the structure may show the parent alone.
Tests used:
[1] = test system: OVCA sps cells; experiment: LOPAC compounds tested on OVCA sps cells, MTS / ATP-based assay (Table 3); assay type: cell-based; settings: proliferation and differentiation
Procedure: CP70 sps cells were seeded in a 96-well culture plate (1×10^3 cells/well) and cultured for 24 hr, and then treated with 30 μM of various compounds selected from the LOPAC database. Following 3-day treatment, the vitality of the treated cells was measured by CellTiter-Glo® Luminescent Cell Vitality Assay kit (Promega) according to the manufacturer's instructions.
(§1) The vitality of the treated cells was measured by MTS assay using MTS-based CellTiter 96 aqueous non-radioactive cell proliferation assay kit (Promega) according to the manufacturer's instructions.

[2] = test system: MCF-7 SPS cells; experiment: LOPAC compounds tested on MCF-7 SPS cells (Table 2); settings: Compounds that inhibit cancer stem cells, 3 μM stated for Niclosamide
Description: The morphology and number of the spheroids were further analyzed by software image pro plus.

[3] = test system: CP70 sps cells; experiment: Cytotoxicity / vitality of CP70 sps cells (MTS assay); settings: for inhibition / cytotoxicity effect on CP70 sps (OVCA sps) cells: 3 μM, MTS assay
Procedure: as §1
The vitality of the CP70 sps cells was measured by MTS assay. For preclinical test, two groups with five mice each were i.p. injected with 1×10^4 of CP70 sps cells alone or followed by Niclosamide treatment (10 mg/kg/daily) from day 1 to day 47, respectively. The body weights of the two groups of mice were monitored every 3 days during day 36 to day 48. After 48 days, the mice were sacrificed to examine the tumor nodules formation in the abdominal cavity.

[4] = test system: CP70 cells; experiment: Cytotoxicity on CP70 (OVCA) cells
[5] = test system: OVCICs sps cells collected from ovarian cancer patient(s); experiment: Patients' OVCA specimen-derived cells (pdOVCICs / OVCICs sps), MTS assay; assay type: cell-based, human; settings: in vitro
Procedure: A total of 5000 pdOVCICs were seeded onto each well in 96-well plates and each plate was treated with different concentrations of Niclosamide in duplicates for 3 days. The vitality of pdOVCICs cells was measured by MTS assay.

[6] = Cisplatin treatment, FIGS. 10A-10C

| Molecule | Cancer cell survival (%) [1] [%] | Cancer cell survival (%) [2] [%] | further results |
| --- | --- | --- | --- |
| C[C@@H]1O[C@@H](O[C@H]2C[C@@H](O)[C@]3(CO)[C@H]4[C@H](O)C[C@]5(C)[C@@H](C6=CC(=O)OC6)CC[C@]5(O)[C@@H]4CC[C@]3(O)C2)[C@H](O)[C@H](O)[C@H]1O [Ouabain] | 26.69 | 1.8 | – |
| O=C1Nc2cc(Br)ccc2/C1=C1/Nc2ccccc2/C1=N\O [BIO, (2′Z,3′E)-6-Bromoindirubin-3′-oxime] | – | 2.4 | – |
| O=Nc1ccc2oc(=O)ccc2c1 [6-Nitroso-1,2-benzopyrone] | – | 1.5 | – |
| CCn1cnc2c(Nc3cccc(Cl)c3)nc(N[C@@H]3CCCC[C@@H]3N)nc21.Cl (relative stereo) [CGP-74514A hydrochloride, N2-(cis-2-Aminocyclohexyl)-N6-(3-chlorophenyl)-9-ethyl-9H-purine-2,6-diamine hydrochloride] | – | 10 | – |
| COc1ccc2c(c[n+](C)c3c4cc5c(cc4ccc23)OCO5)c1OC [Chelerythrine chloride] | – | 9.9 | – |
| N.N.[Cl][Pt][Cl] [Cisplatin] | – | – | inhibition of CP70 sps cells [3, 6]: inhibited; inhibition of CP70 cells [4, 6]: inhibited |
| COc1cc2nc(N3CCN(C(=O)c4ccco4)CC3)nc(N)c2cc1OC [Prazosin hydrochloride] | – | 1.1 | – |
| Vinblastine sulfate salt | 64.6 | – | – |
| CNc1ccc2oc(C[C@H]3O[C@@]4(CC[C@H]3C)O[C@H]([C@H](C)C(=O)c3ccc[nH]3)[C@H](C)C[C@H]4C)nc2c1C(=O)O [Calcimycin] | 42.70 | – | – |
| Brc1c(Br)c(Br)c2[nH]cnc2c1Br [CK2 Inhibitor 2, 4,5,6,7-tetrabromobenzimidazole] | – | 8.3 | – |
| CC(C)(C)c1ccc(S(=O)(=O)/C=C/C#N)cc1 [Bay 11-7085, (E)3-((4-t-Butylphenyl)sulfonyl)-2-propenenitrile] | – | 4 | – |
| COc1ccc2c(c1)/C(=C/c1cnc[nH]1)C(=O)N2 [SU 9516, 3-[1-(3H-Imidazol-4-yl)-meth-(Z)-ylidene]-5-methoxy-1,3-dihydro-indol-2-one] | – | 10.7 | – |
| CCN(CC)C(=S)SSC(=S)N(CC)CC [Tetraethylthiuram disulfide] | – | 10.18 | – |
| Cc1cc(N)c2ccccc2[n+]1CCCCCCCCCC[n+]1c(C)cc(N)c2ccccc21 [Dequalinium dichloride] | 54.68 | – | – |
| N#Cc1c(-c2ccccc2)no[n+]1[O-] [4-Phenyl-3-furoxancarbonitrile] | – | 1.1 | – |
| O.c1cnc2c(c1)ccc1cccnc12 [1,10-Phenanthroline monohydrate] | – | 7 | – |
| CCCCCCCCCCCCCCCC(=O)OC(CC(=O)O)C[N+](C)(C)C.[Cl-] (racemic) [Palmitoyl-DL-Carnitine chloride] | – | 9.7 | – |

| Molecule | Cancer cell survival (%) [1] [%] | Cancer cell survival (%) [2] [%] | further results |
| --- | --- | --- | --- |
| CN1CCN(c2nc3cc(C(F)(F)F)ccc3n3cccc23)CC1.O=C(O)/C=C\C(=O)O [CGS-12066A maleate, 7-Trifluoromethyl-4-(4-methyl-1-piperazinyl)pyrrolo-[1,2-a]quinoxaline maleate salt] | – | 16.3 | – |
| CC1=C(/C=C/C(C)=C/C=C/C(C)=C/C(=O)Nc2ccc(O)cc2)C(C)(C)CCC1 [Retinoic acid p-hydroxyanilide] | – | 13 | – |
| C=CC1=C(C)c2cc3[nH]c(cc4nc(cc5[nH]c(cc1n2)c(C)c5CCC(=O)O)C(CCC(=O)O)=C4C)c(C)c3C=C [Protoporphyrin IX disodium] | 34.75 | 1.8 | – |
| CC[C@@]1(O)C(=O)OCc2c1cc1n(c2=O)Cc2cc3ccccc3nc2-1 [(S)-(+)-Camptothecin] | 39.11 | 8.2 | – |
| CC(C)(C)[C@]1(O)CCN2Cc3cccc4c3[C@H](c3ccccc3CC4)[C@@H]2C1.Cl [(+)-Butaclamol hydrochloride] | 42.81 | – | inhibition / cytotoxicity effect on CP70 sps (OVCA sps) cells ([3]; hydrochloride): can kill; also recorded: significant inhibition effect; inhibition / cytotoxicity effect on CP70 sps (OVCA sps) cells ([3]; listed as (+)-butaclamol hydrochloride, hydrochloride): significant inhibition effects; numbers of ovarian cancer stem cells in CP70 SPS cell culture in vitro ([3]; FIG. 14 / FIG. 15): inhibited; cytotoxicity effect on CP70 (OVCA) cells ([4]; 3 μM, hydrochloride): can kill; also recorded: toxic; differentiation and growth of ovarian cancer cells [5]: successfully inhibited |
| CC[C@H]1CN2CCc3cc(OC)c(OC)cc3[C@@H]2C[C@@H]1C[C@H]1NCCc2cc(OC)c(OC)cc21 [Emetine dihydrochloride hydrate] | 49.13 | 7.3 | – |
| N.S=C(S)N1CCCC1 [Ammonium pyrrolidinedithiocarbamate] | – | 4.4 | – |
| CC1CCCC=CC2CC(O)CC2C(O)C=CC(=O)O1 (centres unmarked) [γ-4-Dihydroxy-2-(6-hydroxy-1-heptenyl)-4-cyclopentanecrotonic acid λ-lactone] | 41.18 | 6.6 | – |
| Clc1ccc(C(c2ccc(Cl)cc2)n2cc[n+](CC(OCc3ccc(Cl)cc3Cl)c3ccc(Cl)cc3Cl)c2)cc1.[Cl-] (centres unmarked) [Calmidazolium chloride, 1-[bis(4-Chlorophenyl)methyl]-3-[2-(2,4-dichlorophenyl)-2-(2,4-dichlorobenzyloxy)ethyl]-1H-imidazolium chloride] | – | 3.9 | – |
| O=C1c2c(O)ccc(O)c2C(=O)c2c(NCCNCCO)ccc(NCCNCCO)c21 [Mitoxantrone] | – | 5.2 | – |
| C[C@@H]1O[C@@H](O[C@H]2C[C@@H](O)[C@]3(CO)[C@H]4[C@H](O)C[C@]5(C)[C@@H]([C@@H]6COC(=O)C6)CC[C@]5(O)[C@@H]4CC[C@]3(O)C2)[C@H](O)[C@H](O)[C@H]1O [Dihydroouabain] | 45.97 | 9.1 | – |
| CC1(C)CCC2=C(O1)c1ccccc1C(=O)C2=O [beta-Lapachone, 3,4-Dihydro-2,2-Dimethyl-2H-Naphtho[1,2-B] Pyran-5,6-Dione] | – | 1.67 | – |
| c1ccc2c(c1)[I+]c1ccccc1-2 [Diphenyleneiodonium chloride] | 31.37 | – | – |
| COc1ccc(NC(=O)c2ccc(-c3ccc(-c4noc(C)n4)cc3C)cc2)cc1N1CCN(C)CC1.Cl.O [GR 127935 hydrochloride, N-[4-Methoxy-3-(4-methyl-1-piperazinyl)phenyl]-2′-methyl-4′-(5-methyl-1,2,4-oxadiazol-3-yl)-1,1′-biphenyl-4-carboxamide hydro chloride hydrate] | – | 2.8 | – |
| CC(=O)c1c(O)c(C)c(O)c(Cc2c(O)c3c(c(C(=O)/C=C/c4ccccc4)c2O)OC(C)(C)C=C3)c1O [Rottlerin] | 38.89 | – | inhibition / cytotoxicity effect on CP70 sps (OVCA sps) cells [3]: significant inhibition effect; also recorded: toxic |
| CCN(CC)CCCC(C)Nc1c2ccc(Cl)cc2nc2ccc(OC)cc12 (centres unmarked) [Quinacrine dihydrochloride] | – | 3.8 | – |
| C[n+]1cc2c3c(ccc2c2ccc4cc5c(cc4c21)OCO5)OCO3 [Sanguinarine chloride] | 20.37 | – | – |
